Where “and” joins values, the source holds several entries; their conditions need not be identical. Identical values can stand only once.
Tested on: recurrent or metastatic (R/M) adenoid cystic carcinoma (ACC)
Assay: Phase 2 single-arm study of rivoceranib in R/M ACC: response, DoR, PFS, TTP per RECIST V1.1
Format: in vivo, human
Description: Overall design: An ongoing Phase 2, multicenter, open-label, single-arm study was designed to evaluate the efficacy and safety of rivoceranib in patients with recurrent or metastatic (R/M) adenoid cystic carcinoma (ACC) of all anatomic sites of origin. The study was composed of an initial screening phase (up to 28 days), a treatment phase, and a follow-up phase.
Objectives: Primary objectives were to evaluate safety & tolerability, efficacy by objective response rate (ORR), best overall response (BOR), time to response, duration of response, disease control rate, and duration of disease control. Secondary objectives were to evaluate efficacy as measured by overall survival, progression-free survival and event-free survival. The primary efficacy endpoint was the ORR, defined as the proportion of patients who achieved confirmed complete response (CR) or partial response (PR) per Response Evaluation Criteria in Solid Tumors (RECIST) Version 1.1 (V1.1). The secondary efficacy endpoints were duration of response (DoR) assessed by the investigator and a blinded independent review committee (BIRC), progression-free survival (PFS) assessed at 6 months, 12 months, and 2 years by investigator and BIRC, Time to Progression (TTP) assessed by investigator and BIRC, and overall survival (OS) assessed at 1 and 2 years. Exploratory efficacy endpoints include ORR per CHOI response criteria (based on the journal article, Choi et al., Correlation of computed tomography and positron emission tomography in patients with metastatic gastrointestinal stromal tumor treated at a single institution with imatinib mesylate: proposal of new computed tomography response criteria. J Clin Oncol. 2007; 25(13): 1753-1759) by a blinded independent review […] (BIRC) and disease control rate (DCR) per RECIST V1.1 by Investigator and BIRC. Except for CHOI response criteria, all response endpoints were assessed per RECIST V1.1 by Investigator and BIRC.
Patients: The study was conducted at 11 study sites in the USA and South Korea. A total of 80 patients were enrolled and received at least 1 dose of study drug (rivoceranib). Fifty-three patients were enrolled in the USA and 27 patients were enrolled in Korea. Eligible patients were 18 years or older and were required to have histologically or cytologically confirmed R/M ACC of any anatomic location not amenable to curative surgery or radiotherapy. Due to the indolent nature of the disease, patients were required to have evidence of disease progression by RECIST V1.1 within the 6 months prior to study entry, evidenced by: ≥20% increase in radiologically or clinically measurable lesions or appearance of new lesions. Patients were required to have at least 1 measurable target lesion by RECIST V1.1. There were no restrictions on prior systemic therapies. Patients were permitted to have prior VEGFR TKI exposure if dosage was discontinued within 5 half-lives prior to rivoceranib treatment. The patients were permitted if they have an Eastern Cooperative Oncology Group (ECOG) performance status of 0 or 1. Patients with treated central nervous system metastases were permitted if they were stable for four weeks prior to study treatment. Eligible patients had documented primary diagnosis of solid tumor cancer of ACC for which anti-VEGFR-2 targeted therapy could be applicable. The majority of patients had primary tumors in the major (33.8%) or minor (58.8%) salivary glands; 6 patients (7.5%) had primary tumors in other locations: lung, breast, trachea, Cowper's gland, intracranial temporal lobe and lymph node. Median time from original ACC diagnosis was 69.62 months. The majority of patients (92.5%) had metastatic disease.
Dose determination: Enrolled patients initiated treatment with rivoceranib 700 mg daily (QD). Up to 3 levels of dose reduction for toxicity were permitted: 500 mg QD, 300 mg QD and 200 mg QD. Patients received treatment until disease progression, unacceptable toxicity, death or withdrawal of consent to treatment. […]

[1] = RECIST V1.1, BIRC, 700 mg QD start
[2] = RECIST V1.1, BIRC, Total N = 73, 700 mg QD start
[3] = RECIST V1.1, BIRC, Total N = 73, Kaplan-Meier, 700 mg QD start
[4] = RECIST V1.1, BIRC, VEGFRi-naïve N = 60, 700 mg QD start
[5] = RECIST V1.1, BIRC, VEGFRi-naïve N = 60, Kaplan-Meier, 700 mg QD start
[6] = RECIST V1.1, BIRC, VEGFRi-treated N = 13, 700 mg QD start
[7] = RECIST V1.1, BIRC, VEGFRi-treated N = 13, Kaplan-Meier, 700 mg QD start
[8] = RECIST V1.1, Investigator, 700 mg QD start
[9] = RECIST V1.1, Investigator, Systemic therapy-naïve N = 29, 700 mg QD start

N#CC1(c2ccc(NC(=O)c3cccnc3NCc3ccncc3)cc2)CCCC1 [Rivoceranib, N-[4-(1-cyanocyclopentyl)phenyl]-2-{[(pyridin-4-yl)methyl]amino}pyridine-3-carboxamide]
remaining (non-ORR) patients who had a tumor size reduction (700 mg QD start): about 85% | median PFS (Kaplan-Meier, patients previously treated with systemic therapy, 700 mg QD start): 8.9 months | median PFS (Kaplan-Meier, patients without any prior systemic therapy, 700 mg QD start): 13.7 months | ORR based on patients assessed as responders by either Investigator or BIRC (RECIST V1.1, 15 out of 73 patients, 700 mg QD start): 20.5% | estimated TTP rate at 6 months [1]: 80.7% | estimated TTP rate at 9 months [1]: 57.3% | estimated TTP rate at 12 months [1]: 41% | BOR: Complete Response [2]: 0% | BOR: Not Evaluable [2]: 1 (1.4) % | BOR: Partial Response [2]: 7 (9.6) % | BOR: Progressive Disease [2]: 5.5% and 4 (5.5) % | BOR: Stable Disease [2]: 61 (83.6) % | DCR (disease control rate, CR, PR or SD ≥3 months) [2]: 65.8% and 64.4% and 48 (65.8) % | Median TTP (95% CI) [2]: 9.3 (8.5-13.6) months | ORR (objective response rate) [2]: 9.6% and 7 (9.6) % | PFS landmark 6-months, % (95% CI) [2]: 80.8 (68.5-88.6) % | PFS landmark 12-months, % (95% CI) [2]: 38.2 (25.0-51.3) % | DoR 25th percentile [3]: 5.5 months | DoR 75th percentile [3]: 8.3 months | DoR Median (95% CI) [3]: 7.2 months and 7.2 (3.5, 8.4) months | Median PFS (95% CI) [3]: 9.2 months and 9.2 (8.0, 12.9) months | BOR: Complete Response [4]: 0% | BOR: Not Evaluable [4]: 1 (1.7) % | BOR: Partial Response [4]: 5 (8.3) % | BOR: Progressive Disease [4]: 3 (5.0) % | BOR: Stable Disease [4]: 51 (85) % | DCR (disease control rate, CR, PR or SD ≥3 months) [4]: 39 (65.0) % | Median PFS (95% CI) [4]: 9.3 (8.0-13.7) months | Median TTP (95% CI) [4]: 10.8 (8.5-13.8) months | ORR (objective response rate) [4]: 8.5% and 5 (8.3) % | PFS landmark 6-months, % (95% CI) [4]: 80.3 (66.3-88.9) % | PFS landmark 12-months, % (95% CI) [4]: 40.4 (25.6-54.6) % | DoR 25th percentile [5]: 5.4 months | DoR 75th percentile [5]: 8.3 months | BOR: Complete Response [6]: 0% | BOR: Not Evaluable [6]: 0% | BOR: Partial Response [6]: 2 (15.4) % | BOR: Progressive Disease [6]: 1 (7.7) % | BOR: Stable Disease [6]: 10 (76.9) % | DCR (disease control rate, CR, PR or SD ≥3 months) [6]: 9 (69.2) % | Median PFS (95% CI) [6]: 8.9 (5.3-12.9) months | Median TTP (95% CI) [6]: 8.9 (5.3-12.9) months | PFS landmark 6-months, % (95% CI) [6]: 83.1 (47.2-95.5) % | PFS landmark 12-months, % (95% CI) [6]: 26.0 (4.3-56.2) % | DoR 25th percentile [7]: 5.5 months | DoR 75th percentile [7]: 7.1 months | DoR Median (95% CI) [7]: 6.3 (5.5, 7.1) months | estimated PFS rate at 9 months (RECIST V1.1, BIRC, efficacy evaluable, 700 mg QD start): 53.5% | estimated TTP rate at 6 months [8]: 76.2% | estimated TTP rate at 9 months [8]: 57.0% | estimated TTP rate at 12 months [8]: 43.7% | Median time to response (RECIST V1.1, Investigator, 11 responders): 57.0 days | BOR: Complete Response [9]: 0% | BOR: Not Evaluable [9]: 0% | BOR: Partial Response [9]: (20.7) % | BOR: Progressive Disease [9]: (10.3) % | BOR: Stable Disease [9]: (69.0) %
